Measured values reported in the SangsterLogP compilation.

Test: method code SF-AS, from DOI: 10.1080/09553007914550151, PMID: 312783
Conditions: pH 7.4

logD | SMILES
1.89 | O=[N+]([O-])c1nccn1CCOc1ccccc1
0.64 | C=Cc1cnc([N+](=O)[O-])n1C
-0.1 | O=[N+]([O-])c1nccn1CCN1CCOCC1
0.52 | O=[N+]([O-])c1nccn1CCS(=O)(=O)c1ccccc1
0.51 | COC(=O)c1cnc([N+](=O)[O-])n1C
0.51 | CC(C)OCC(O)Cn1ccnc1[N+](=O)[O-] (configuration not stated)
-0.38 | O=[N+]([O-])c1cn(CCN2CCOCC2)cn1
0.53 | CCOCCn1ccnc1[N+](=O)[O-]
-0.36 | COCC(O)Cn1cc([N+](=O)[O-])nc1C (configuration not stated)
0.89 | COCc1ccc([N+](=O)[O-])o1
0.12 | COCCn1ccnc1[N+](=O)[O-]
0.43 | Cn1c(C(C)(C)O)cnc1[N+](=O)[O-]
-0.35 | Cn1c(CO)cnc1[N+](=O)[O-]
-1.3 | CS(=O)(=O)CCn1ccnc1[N+](=O)[O-]
2.38 | O=[N+]([O-])c1nccn1CCCOc1ccccc1
-0.34 | CC(=O)Cn1ccnc1[N+](=O)[O-]
-0.09 | COC(=O)Cn1ccnc1[N+](=O)[O-]
